According to PMC2289708 (The Journal of Cell Biology, 1992):
Each block holds one compound with its values, some of them ahead of it.

What was measured:
[1] = system: F-actin in human PMNs; experiment: F-actin level in PMNs, rhodamine phalloidin binding; assay type: cell-based
[2] = molecular target: muscle G-actin; settings: cited from earlier work
[3] = molecular target: muscle G-actin; experiment: TB4 binding to muscle G-actin from rates of pyrenyl actin elongation; parameters: species or system rabbit
[4] = assay type: in vitro ADME, human; settings: lysed on ice for 5 min before addition of PCA, relative to samples receiving PCA <30 s after lysis; HPLC; not shown
[5] = system: G-actin; experiment: Non-denaturing PAGE and immunoblot of PMN supernatants for G-actin/TB4 complex; assay type: binding, human
[6] = system: platelet actin (cell actin); settings: ref Weber et al., 1992, cited from earlier work
[7] = ref Safer et al., 1990; cited from earlier work
[8] = system: G-actin/TB4 complex in human PMNs; experiment: Change in G-actin/TB4 complex band after stimulation of PMNs; assay type: cell-based; settings: 10^-7 M FNLLP, 30 s
[9] = molecular target: pyrenyl G-actin (Oryctolagus cuniculus, UniProt P68135); assay type: biochemical, rabbit

Compound: C=C1[C@@H](C)[C@H]2[C@H](Cc3ccccc3)NC(=O)[C@]23OC(=O)/C=C/[C@H](O)CCC[C@@H](C)C/C=C/[C@H]3[C@@H]1O [cytochalasin B]
effect on chemoattractant induced increase in F-actin ([1]; cytochalasin B with FNLLP, 2 μM in Fig. 3a): blocks the chemoattractant induced in- crease in F-actin

effect of preincubation with TB4 on polymerization rate ([3]; 2 μM pyrenyl G-actin with 5 μM TB4, F-actin nuclei): slower rate of polymerization
time for slope to shift to that of preincubated samples ([3]; 5 μM TB4 added after polymerization started, mixing interval, all n = 7 samples): ≤ 6 s
kon (rate constant of binding), minimal ([3]; bovine spleen TB4 5 μM, 2 μM pyrenyl muscle G-actin, Equation 1, SD 0.003, n = 7): > 45000 M⁻¹ s⁻¹
koff, minimal ([3]; from Kd and minimal kon, muscle actin): greater than 0.09 s-1
Compound: Thymosin beta 4 [TB4]
Kd ([2]; read-out: Kd for muscle actin (literature), ref Weber et al., 1992): 2 µM
kon (literature) ([2]; ref Goldschmidt-Clermont et al. (1992)): 0.75 s⁻¹
effect of PIPs on binding ([2]; ref Janmey et al., 1992): nor affected by PIPs
binding to pyrene vs unlabeled muscle actin ([2]; ref Weber et al., 1992): binds equally well to pyrene and unlabeled muscle actin
calcium sensitivity of binding ([2]; ref Weber et al., 1992): neither calcium sensitive
kinetics of bovine spleen T beta 4 binding to muscle pyrenyl G-actin [3]: sufficiently rapid to accommodate the rapid changes in actin polymerization and depolymerization observed in vivo
TB4 remaining in cell lysate [4]: 95%
PMN band antibody reactivity (actin and TB4) ([5]; immunoblot of band with mobility similar to actin/TB4 complex): reacts positively with antibodies to both actin
fraction of G-actin migrating like G-actin/T beta 4 complex ([5]; supernatants from resting PMNs, 7.5% non-denaturing gels): a large fraction of G-actin in supernatants prepared from resting PMNs has a mobility similar to the G- actin/T beta 4 complex
Kd ([6]; read-out: Kd for platelet / cell actin): 0.6 µM
affinity for nonmuscle vs muscle actin [6]: approximately threefold higher
activity after boiling [7]: remains active after boiling

slope of pyrenyl actin polymerization in stimulated cell supernatant ([9]; Fig. 4, R2 = 0.777, resting supernatant slope 13.6, 10^-7 M FNLLP, 30 s): 6.1 fluorescent U/min
inhibitory activity of boiled supernatants, resting vs stimulated ([9]; boiled supernatants from resting and FNLLP-stimulated cells, not shown): approximately equal inhibitory activity
F-actin upon stimulation ([1]; 10^-7 M FNLLP, 30 s, n = 6): 200 + 42 % of the amount in resting cel
F-actin increase upon stimulation (Fig. 3a) ([1]; 10^-7 M FNLLP, 30 s, single representative experiment of Fig. 3): 1.5 fold
Compound: formylnorleucyileucylphenylalanine [FNLLP]
TB4 staining of actin/TB4 band after stimulation, anti-TB4 immunoblot ([8]; 23°C, n = 6): 53 + 9 % of the resting cell level
intensity of G-actin/TB4 band, Coomassie blue ([8]; non-denaturing gel): reduces the intensity of the G-actin/T~4 band
rate of pointed end polymerization in stimulated supernatant (Fig. 4) ([9]; single experiment of Fig. 4, 10^-7 M FNLLP, 30 s): 45 % of the rate in the resting supernatant
F-actin of stimulated vs resting cells (Fig. 4 experiment) ([1]; 10^-7 M FNLLP, 30 s, not shown): approximately twice
